Measured values as given in patent publication US20020137929A1, “1 - (3-heterocyclylphenyl) isothiourea, -isourea, -guanidine and -amidine herbicidal agents” (Intellectual Property Department, BASF Aktiengesellschaft, priority 1998, published 2002).

Experiments:
[1] = system: AMBEL (Ragweed, Common); assay: Preemergence herbicidal evaluation; assay type: in vivo, Ambrosia artemisifolia; conditions: rated 4-5 weeks after treatment
Procedure, shortened: (§1)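 Visual 0-9 rating vs control (stand, vigor, malformation, size, chlorosis, overall appearance), scored 4-5 wk after spraying. Seeded soil cups were treated preemergence with compound in aqueous acetone, ~0.0156-0.500 kg/ha equivalent.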

[2] = system: IPOHE (Morningglory, Ivyleaf); assay: Preemergence herbicidal evaluation; assay type: in vivo, Ipomoea hederacea; conditions: rated 4-5 weeks after treatment
Procedure, shortened: as §1

[3] = system: ECHORC (Watergrass (Calif.)); assay: Postemergence weed control under flooded paddy conditions; assay type: in vivo, Echinochloa oryzoides; conditions: postemergence weeds, 3-4 weeks after treatment
Procedure, shortened: (§2)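 Injury ratings (0–9 scale covering stand, vigor, malformation, size, chlorosis and overall appearance versus control) were made three to four weeks after treatment. Test material, about 0.0313 to 0.500 kg/ha a.i. in 50/50 v/v aqueous/acetone, was added to flood water 1.5 to 3 cm deep over 3 to 5 cm weeds and 1.5 to 2.5 leaf rice.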

[4] = system: TRZAWR (Wheat, Winter, cv Riband); assay: Preemergence herbicidal evaluation; assay type: in vivo, Triticum aestivum; conditions: rated 4-5 weeks after treatment
Procedure, shortened: as §1

[5] = system: ZEAMX (Corn, Field); assay: Preemergence herbicidal evaluation; assay type: in vivo, Zea mays; conditions: rated 4-5 weeks after treatment
Procedure, shortened: as §1

[6] = system: ECHORC (Watergrass (Calif.)); assay: Preemergence weed control under flooded paddy conditions; assay type: in vivo, Echinochloa oryzoides; conditions: rated 3-4 weeks after treatment
Procedure, shortened: (§3)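 Visual injury scored 0-9 against control three to four weeks post-treatment, greenhouse-grown. Application: acetone/water (50/50) solutions dosed directly into flood water (1.5-3 cm over silt loam, planted top 0.5 cm), roughly 0.0313 to 0.500 kg/ha active ingredient.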

[7] = system: ZEAMX (Corn, Field); assay: Postemergence herbicidal evaluation; assay type: in vivo, Zea mays
Procedure, shortened: (§4)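 First, seedlings were raised for around two weeks. Next, test material in 50/50 acetone/water containing 0.5% TWEEN 20 was sprayed through a nozzle at 40 psi, equivalent to about 0.0156–0.500 kg/ha. Finally, after 4–5 weeks in the greenhouse, plants were rated 0–9.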

[8] = system: GALAP (Galium); assay: Postemergence herbicidal evaluation; assay type: in vivo, Galium aparine
Procedure, shortened: as §4

[9] = system: ORYSAT (Rice, Tebonnet); assay: Preemergence herbicidal evaluation; assay type: in vivo, Oryza sativa, (L.) Tebonnet; conditions: rated 4-5 weeks after treatment
Procedure, shortened: as §1

[10] = system: CYPIR (Rice Flatsedge); assay: Preemergence weed control under flooded paddy conditions; assay type: in vivo, Cyperus iria; conditions: rated 3-4 weeks after treatment
Procedure, shortened: as §3

[11] = system: CYPSE (Flatsedge); assay: as above; assay type: in vivo, Cyperus serotinus; conditions: rated 3-4 weeks after treatment
Procedure, shortened: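 Values are visual 0-9 scores against a control for a preemergence application into paddy flood water at about 0.0313 to 0.500 kg/ha. Greenhouse duration was three to four weeks.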

[12] = system: CASOB (Sicklepod); assay: Postemergence herbicidal evaluation; assay type: in vivo, Cassia obtusifolia
Procedure, shortened: as §4

[13] = system: CHEAL (Lambsquarters, Common); assay: Preemergence herbicidal evaluation; assay type: in vivo, Chenopodium album; conditions: rated 4-5 weeks after treatment
Procedure, shortened: as §1

[14] = system: CYPSE (Flatsedge); assay: Postemergence weed control under flooded paddy conditions; assay type: in vivo, Cyperus serotinus; conditions: postemergence weeds, 3-4 weeks after treatment
Procedure, shortened: as §2

CCOC(=O)CN1CCSC1=Nc1cc(-n2nc(C)n(C(F)F)c2=O)c(F)cc1Cl [Compound 36]
Preemergence herbicidal rating AMBEL ([1]; rate 0.0625 kg/ha): 0.0 | Preemergence herbicidal rating AMBEL ([1]; rate 0.1250 kg/ha): 0.0 | Preemergence herbicidal rating AMBEL ([1]; rate 0.2500 kg/ha): 9.0 | Preemergence herbicidal rating IPOHE ([2]; rate 0.0625 kg/ha): 0.0 | Preemergence herbicidal rating IPOHE ([2]; rate 0.1250 kg/ha): 0.0 | Preemergence herbicidal rating IPOHE ([2]; rate 0.2500 kg/ha): 0.0 | Herbicidal rating ECHORC ([3]; rate 0.0313 kg/ha): 4.0 | Herbicidal rating ECHORC ([3]; rate 0.0625 kg/ha): 6.0 | Herbicidal rating ECHORC ([3]; rate 0.1250 kg/ha): 7.0 | Herbicidal rating ECHORC ([3]; rate 0.2500 kg/ha): 9.0 | Preemergence herbicidal rating TRZAWR ([4]; rate 0.0625 kg/ha): 0.0 | Preemergence herbicidal rating TRZAWR ([4]; rate 0.1250 kg/ha): 1.0 | Preemergence herbicidal rating TRZAWR ([4]; rate 0.2500 kg/ha): 0.0 | Preemergence herbicidal rating ZEAMX ([5]; rate 0.0625 kg/ha): 0.0 | Preemergence herbicidal rating ZEAMX ([5]; rate 0.1250 kg/ha): 3.0 | Preemergence herbicidal rating ZEAMX ([5]; rate 0.2500 kg/ha): 6.0 | Herbicidal rating ECHORC ([6]; 0.0313 kg/ha): 4.0 | Herbicidal rating ECHORC ([6]; 0.0625 kg/ha): 6.0 | Herbicidal rating ECHORC ([6]; 0.1250 kg/ha): 7.0 | Herbicidal rating ECHORC ([6]; 0.2500 kg/ha): 9.0 | Postemergence herbicidal rating ZEAMX ([7]; Rate 0.0158 kg/ha): 4.5 | Postemergence herbicidal rating ZEAMX ([7]; Rate 0.0315 kg/ha): 6.0 | Postemergence herbicidal rating ZEAMX ([7]; Rate 0.0630 kg/ha): 7.5 | Postemergence herbicidal rating GALAP ([8]; Rate 0.0158 kg/ha): 0.0 | Postemergence herbicidal rating GALAP ([8]; Rate 0.0315 kg/ha): 1.0 | Postemergence herbicidal rating GALAP ([8]; Rate 0.0630 kg/ha): 4.0 | Preemergence herbicidal rating ORYSAT ([9]; rate 0.0625 kg/ha): 0.0 | Preemergence herbicidal rating ORYSAT ([9]; rate 0.1250 kg/ha): 0.0 | Preemergence herbicidal rating ORYSAT ([9]; rate 0.2500 kg/ha): 4.0 | Herbicidal rating CYPIR ([10]; 0.0313 kg/ha): 0.0 | Herbicidal rating CYPIR ([10]; 0.0625 kg/ha): 5.0 | Herbicidal rating CYPIR ([10]; 0.1250 kg/ha): 5.0 | Herbicidal rating CYPIR ([10]; 0.2500 kg/ha): 9.0 | Herbicidal rating CYPSE ([11]; 0.0313 kg/ha): 0.0 | Herbicidal rating CYPSE ([11]; 0.0625 kg/ha): 0.0 | Herbicidal rating CYPSE ([11]; 0.1250 kg/ha): 2.0 | Herbicidal rating CYPSE ([11]; 0.2500 kg/ha): 4.0 | Postemergence herbicidal rating CASOB ([12]; Rate 0.0158 kg/ha): 0.0 | Postemergence herbicidal rating CASOB ([12]; Rate 0.0315 kg/ha): 0.0 | Postemergence herbicidal rating CASOB ([12]; Rate 0.0630 kg/ha): 0.0 | Preemergence herbicidal rating CHEAL ([13]; rate 0.0625 kg/ha): 0.0 | Preemergence herbicidal rating CHEAL ([13]; rate 0.1250 kg/ha): 9.0 | Preemergence herbicidal rating CHEAL ([13]; rate 0.2500 kg/ha): 9.0 | Herbicidal rating CYPSE ([14]; rate 0.0313 kg/ha): 0.0 | Herbicidal rating CYPSE ([14]; rate 0.0625 kg/ha): 0.0 | Herbicidal rating CYPSE ([14]; rate 0.1250 kg/ha): 2.0 | Herbicidal rating CYPSE ([14]; rate 0.2500 kg/ha): 4.0

Cn1c(C(F)(F)F)cc(=O)n(-c2cc(N=C3SCC(=O)N3CC(=O)NS(C)(=O)=O)c(Cl)cc2F)c1=O [Compound 38, 2-{{2-Chloro-5-[3,6-dihydro-3-methyl-2,6-dioxo-4-(trifluoromethyl)-1(2H)-pyrimidinyl]-4-fluoro-phenyl}imino}-N-(methylsulfonyl)-4-oxo-3-thiazolidineacetamide]
Preemergence herbicidal rating AMBEL ([1]; rate 0.0313 kg/ha): 0.0 | Preemergence herbicidal rating AMBEL ([1]; rate 0.0625 kg/ha): 0.0 | Preemergence herbicidal rating AMBEL ([1]; rate 0.1250 kg/ha): 0.0 | Preemergence herbicidal rating AMBEL ([1]; rate 0.2500 kg/ha): 5.0 | Preemergence herbicidal rating IPOHE ([2]; rate 0.0313 kg/ha): 0.0 | Preemergence herbicidal rating IPOHE ([2]; rate 0.0625 kg/ha): 4.0 | Preemergence herbicidal rating IPOHE ([2]; rate 0.1250 kg/ha): 5.0 | Preemergence herbicidal rating IPOHE ([2]; rate 0.2500 kg/ha): 9.0 | Herbicidal rating ECHORC ([3]; rate 0.0313 kg/ha): 0.0 | Herbicidal rating ECHORC ([3]; rate 0.0625 kg/ha): 2.0 | Herbicidal rating ECHORC ([3]; rate 0.1250 kg/ha): 4.0 | Herbicidal rating ECHORC ([3]; rate 0.2500 kg/ha): 7.0 | Preemergence herbicidal rating TRZAWR ([4]; rate 0.0313 kg/ha): 0.0 | Preemergence herbicidal rating TRZAWR ([4]; rate 0.0625 kg/ha): 0.0 | Preemergence herbicidal rating TRZAWR ([4]; rate 0.1250 kg/ha): 2.0 | Preemergence herbicidal rating TRZAWR ([4]; rate 0.2500 kg/ha): 7.0 | Preemergence herbicidal rating ZEAMX ([5]; rate 0.0313 kg/ha): 0.0 | Preemergence herbicidal rating ZEAMX ([5]; rate 0.0625 kg/ha): 0.0 | Preemergence herbicidal rating ZEAMX ([5]; rate 0.1250 kg/ha): 0.0 | Preemergence herbicidal rating ZEAMX ([5]; rate 0.2500 kg/ha): 4.0 | Herbicidal rating ECHORC ([6]; 0.0313 kg/ha): 0.0 | Herbicidal rating ECHORC ([6]; 0.0625 kg/ha): 2.0 | Herbicidal rating ECHORC ([6]; 0.1250 kg/ha): 4.0 | Herbicidal rating ECHORC ([6]; 0.2500 kg/ha): 7.0 | Postemergence herbicidal rating ZEAMX ([7]; Rate 0.0156 kg/ha): 7.5 | Postemergence herbicidal rating ZEAMX ([7]; Rate 0.0313 kg/ha): 7.5 | Postemergence herbicidal rating ZEAMX ([7]; Rate 0.0625 kg/ha): 7.5 | Postemergence herbicidal rating ZEAMX ([7]; Rate 0.1250 kg/ha): 7.5 | Postemergence herbicidal rating ZEAMX ([7]; Rate 0.2500 kg/ha): 7.5 | Postemergence herbicidal rating GALAP ([8]; Rate 0.0156 kg/ha): 0.0 | Postemergence herbicidal rating GALAP ([8]; Rate 0.0313 kg/ha): 1.0 | Postemergence herbicidal rating GALAP ([8]; Rate 0.0625 kg/ha): 3.0 | Postemergence herbicidal rating GALAP ([8]; Rate 0.1250 kg/ha): 3.0 | Postemergence herbicidal rating GALAP ([8]; Rate 0.2500 kg/ha): 8.0 | Preemergence herbicidal rating ORYSAT ([9]; rate 0.0313 kg/ha): 0.0 | Preemergence herbicidal rating ORYSAT ([9]; rate 0.0625 kg/ha): 0.0 | Preemergence herbicidal rating ORYSAT ([9]; rate 0.1250 kg/ha): 0.0 | Preemergence herbicidal rating ORYSAT ([9]; rate 0.2500 kg/ha): 2.0 | Herbicidal rating CYPIR ([10]; 0.0313 kg/ha): 3.0 | Herbicidal rating CYPIR ([10]; 0.0625 kg/ha): 3.0 | Herbicidal rating CYPIR ([10]; 0.1250 kg/ha): 5.0 | Herbicidal rating CYPIR ([10]; 0.2500 kg/ha): 5.0 | Herbicidal rating CYPSE ([11]; 0.0313 kg/ha): 0.0 | Herbicidal rating CYPSE ([11]; 0.0625 kg/ha): 0.0 | Herbicidal rating CYPSE ([11]; 0.1250 kg/ha): 0.0 | Herbicidal rating CYPSE ([11]; 0.2500 kg/ha): 3.0 | Postemergence herbicidal rating CASOB ([12]; Rate 0.0156 kg/ha): 0.0 | Postemergence herbicidal rating CASOB ([12]; Rate 0.0313 kg/ha): 1.0 | Postemergence herbicidal rating CASOB ([12]; Rate 0.0625 kg/ha): 2.0 | Postemergence herbicidal rating CASOB ([12]; Rate 0.1250 kg/ha): 3.0 | Postemergence herbicidal rating CASOB ([12]; Rate 0.2500 kg/ha): 3.0 | Preemergence herbicidal rating CHEAL ([13]; rate 0.0313 kg/ha): 9.0 | Preemergence herbicidal rating CHEAL ([13]; rate 0.0625 kg/ha): 9.0 | Preemergence herbicidal rating CHEAL ([13]; rate 0.1250 kg/ha): 9.0 | Preemergence herbicidal rating CHEAL ([13]; rate 0.2500 kg/ha): 9.0 | Herbicidal rating CYPSE ([14]; rate 0.0313 kg/ha): 0.0 | Herbicidal rating CYPSE ([14]; rate 0.0625 kg/ha): 0.0 | Herbicidal rating CYPSE ([14]; rate 0.1250 kg/ha): 0.0 | Herbicidal rating CYPSE ([14]; rate 0.2500 kg/ha): 3.0
